What all share (type): cell-based
Experiment [1] relates to genotype 1b (Con1) wild-type transient HCV replicon in Huh-7-derived cells. Put plainly: Transient-transfected HCV replicon EC50, genotype 1b wild type. To be noted: Hepatitis C virus; transient-transfected replicon genotype 1b wild type, 72 h; read-out: EC50 1B WT. On the technique in general: Replicon systems follow genome replication, usually without infectious particles.

Experiment [2] has as its system genotype 1a stable HCV replicon (H77 strain) in Huh-7-derived cells. Put plainly: Stable subgenomic HCV replicon EC50, genotype 1a (Renilla luciferase). Particulars: Hepatitis C virus, stable replicon genotype 1a, 72 h, read-out: EC50 1A RLUC. How it is done:
(§1) Antiviral potency (EC50) was determined in both stable subgenomic HCV replicon cell lines and transient-transfected HCV replicon cells. The term half maximal effective concentration (EC50) refers to the concentration of a drug which induces a response halfway between the baseline and maximum after the exposure time specified below.
(§2) Stable subgenomic HCV replicons for genotype 1a, 1 b, 2a, 3a, and 4a were established in Huh-7-derived cells as described by Lohmann et al (Lohmann V, Korner F, Koch J, et al Replication of subgenomic hepatitis C virus RNAs in a hepatoma cell line. Science 1999; 285:119-3). Each stable cell line contains a bicistronic HCV replicon that encodes a humanized Renilla luciferase (hRLuc) reporter gene fused to a selectable neomycin-resistance gene, followed by an EMCV IRES and the NS3-NS5B coding region of HCV. […] Luciferase activity was measured as a marker for intracellular HCV replication levels.
(§3) The genotype 1a stable replicon was derived from the H77 HCV strain and contained adaptive mutations P1496L and S2204I. The genotype 1 b stable replicon was derived from the Cont HCV strain and contained adaptive mutations E1202G, T1280I, and K1846T. […] The genotype 3a stable replicon was derived from the S52 HCV strain and contained adaptive mutations P1121 L, A1198T and S2210I (equivalent to S2204I in genotype 1). The genotype 4a stable replicon was derived from the ED43 HCV strain and contained adaptive mutations Q1691R and S2204I. All replicon cell lines were propagated in Huh-7-derived cells and maintained in Dulbecco's modified Eagle's Medium (DMEM) supplemented with 10% fetal bovine serum (FBS) and 0.5 mg/mL G418.
(§4) To perform EC50 assays, cells from each HCV replicon were dispensed into 384-well plates. Compounds were dissolved in DMSO at a concentration of 10 mM and diluted in DMSO using an automated pipetting instrument. Three-fold serially diluted compounds were directly added to the cells using an automated instrument. […] Seventy-two hours later, cells were lysed and Renilla luciferase activity were quantified as recommended by the manufacturer (Promega-Madison, Wis.). Non-linear regression was performed to calculate EC50 values.

Experiment [3] has as its system genotype 1b transient HCV replicon, NS3/4a protease inhibitor resistant variant D168A, in Huh-7-derived cells. Put plainly: Transient-transfected HCV replicon EC50, genotype 1b D168A. To be noted: Hepatitis C virus, 72 h, read-out: EC50 1B D168A.
The test system of experiment [4] is genotype 3a transient HCV replicon (S52 strain) in Huh-7-derived cells. Put plainly: Transient-transfected HCV replicon EC50, genotype 3a wild type. To be noted: Hepatitis C virus; transient-transfected replicon genotype 3a wild type, 72 h; read-out: EC50 3A WT.
Experiment [5] concerns genotype 3a stable HCV replicon (S52 strain) in Huh-7-derived cells. Put plainly: Stable subgenomic HCV replicon EC50, genotype 3a (Renilla luciferase). Particulars: Hepatitis C virus, 72 h, read-out: EC50 3A RLUC. How it is done: as §1, §2, §3, §4
The subject of experiment [6] is genotype 1a (H77) wild-type transient HCV replicon in Huh-7-derived cells. Put plainly: Transient-transfected HCV replicon EC50, genotype 1a wild type. To be noted: Hepatitis C virus; transient-transfected replicon genotype 1a wild type, 72 h; read-out: EC50 1A WT.
The subject of experiment [7] is genotype 2a stable HCV replicon (JFH-1 strain) in Huh-7-derived cells. Put plainly: Stable subgenomic HCV replicon EC50, genotype 2a (Renilla luciferase). To be noted: Hepatitis C virus, stable replicon genotype 2a, 72 h, read-out: EC50 2A RLUC. How it is done: as §1, §2, §3, §4
For experiment [8], the system named is genotype 1b stable HCV replicon in Huh-7-derived cells. Put plainly: Stable subgenomic HCV replicon EC50, genotype 1b (Renilla luciferase). Particulars: Hepatitis C virus, stable replicon genotype 1b, 72 h, read-out: EC50 1B RLUC. How it is done: as §1, §2, §3, §4
Experiment [9] concerns genotype 4a stable HCV replicon (ED43 strain) in Huh-7-derived cells. Put plainly: Stable subgenomic HCV replicon EC50, genotype 4a (Renilla luciferase). Particulars: Hepatitis C virus, 72 h, read-out: EC50 4A RLUC. How it is done: as §1, §2, §3, §4
The test system of experiment [10] is genotype 1a transient HCV replicon, NS3/4a protease inhibitor resistant variant R155K, in Huh-7-derived cells. Put plainly: Transient-transfected HCV replicon EC50, genotype 1a R155K. Particulars: Hepatitis C virus, 72 h, read-out: EC50 1A R155K.

The results in this text go back to patent US20150175655A1 (priority 2012, published 2015).

By EC50 is commonly meant the concentration giving half of the maximal effect.

Each structure is given as a SMILES string.

As for `CC[C@@H]1[C@@H]2CN(C(=O)[C@H](C(C)(C)C)NC(=O)O[C@@H]3C[C@H]3CC/C=C/C(F)(F)c3nc4ccc(OC)cc4nc3O2)[C@@H]1C(=O)N[C@]1(C(=O)NS(=O)(=O)C2(C)CC2)C[C@H]1C(F)F` [Example 89, (1aR,5S,8S,9S,10R,19E,22aR)-5-tert-butyl-N-[(1R,2R)-2-(difluoromethyl)-1-{[(1-methylcyclopropyl)sulfonyl]carbamoyl}cyclopropyl]-9-ethyl-18,18-difluoro-14-methoxy-3,6-dioxo-1,1a,3,4,5,6,9,10,18,21,22,22a-dodecahydro-8H-7,10-methanocyclopropa[18,19][1,10,3,6]dioxadiazacyclononadecino[11,12-b]quinoxaline-8-carboxamide], the EC50 worked out at 3.2 nM in [1]; 6 nM in experiment [2]; 5.1 nM in [3]; 5.5 nM in [4]; 19 nM in experiment [5]; 6 nM in experiment [6]. Moreover, the EC50 in [7] was 4.3 nM; in experiment [8] it was 6.1 nM; in experiment [9] it was 4.6 nM; in [10] it was 3.7 nM.
